Data on two compounds can be found in patent US20050123583A1, “Medical use of reuterin” (priority 2000, published 2005).

For data set [1], the system named is 3T3 fibroblasts (BALB/3T3 C1A31-1-1). The experiment in a line: Cytotoxicity, MTT assay. It is filed as cell-based, mouse. Particulars: 24 hours of culture. Here is the method: (§1) The cytotoxicity of reuterin was also studied (J Biomed Mater Res 2002;61:360-369) and disclosed in the present invention, wherein glutaraldehyde is again used as a control. The cytotoxicity of the test reagents (glutaraldehyde vs. reuterin) was evaluated in vitro using a mouse-derived established cell line of 3T3 fibroblasts (BALB/3T3 C1A31-1-1). The assay (light microscopic observation and MTT assay) was used to measure the proportion of viable cells following a test reagent-treated culture.
In the assay, 3T3 fibroblasts were seeded in 24-well plates at 5×10^4 cells/well in 1 ml Dulbecco's modified eagle medium (DMEM, Gibco 430-2800EG, Grand Island, N.Y., USA) with 10% fetal calf serum (FCS, Hyclone Laboratories, Logan, Ut., USA). […] Subsequently, the cells were washed with phosphate buffered saline (PBS) twice and surviving cell numbers were then determined indirectly by 3-(4,5-dimethylthiazol-yl)-2,5-diphenyltetrazolium bromide (MTT, Sigma Chemical Co., St. Louis, Mo., USA) dye reduction.
The MTT assay is based on the reduction of MTT, a yellow soluble dye by the mitochondrial succinate dehydrogenase to form an insoluble dark blue formazan product. […] Optical density readings were then performed using a multiwell scanning spectrophotometer (MRX Microplate Reader, Dynatech Laboratories Inc., Chantilly, Va., USA) at a wavelength of 570 nm. […]
For orientation: Tetrazolium dyes change colour on reduction, which living cells bring about.

The test system of data set [2] is Escherichia coli (ATCC 25922), Pseudomonas aeruginosa (ATCC 27853), Staphylococcus aureus (ATCC 25923), and Bacillus subtillis (ATCC 6633). Kind of data set: Antimicrobial activity of reuterin, glutaraldehyde as control. It is filed as cell-based. An excerpt:
Antimicrobial activity of reuterin was studied (J Biomed Mater Res 2002;61:360-369) and disclosed in the present invention, wherein glutaraldehyde is used as a control. The microorganisms tested in the study are Escherichia coli (ATCC 25922), Pseudomonas aeruginosa (ATCC 27853), Staphylococcus aureus (ATCC 25923), and Bacillus subtillis (ATCC 6633).

For data set [3], the system named is 3T3 fibroblasts (BALB/3T3 C1A31-1-1). The experiment in a line: Cytotoxicity, light microscopic observation of cultured cells. It is filed as cell-based. Particulars: 24 hours of culture. Here is the method: as §1
In the assay, 3T3 fibroblasts were seeded in 24-well plates at 5×10^4 cells/well in 1 ml Dulbecco's modified eagle medium (DMEM, Gibco 430-2800EG, Grand Island, N.Y., USA) with 10% fetal calf serum (FCS, Hyclone Laboratories, Logan, Ut., USA). The cell culture was maintained in a humidified incubator at 37° C. with 10% CO2 in air. Cells in log phase of growth were then exposed to a new DMEM medium drugged with varying concentrations of glutaraldehyde or reuterin. After 24 hours of culture, the growth media in the wells were removed and the cells were photographed using light microscopy. Subsequently, the cells were washed with phosphate buffered saline (PBS) twice and surviving cell numbers were then determined indirectly by 3-(4,5-dimethylthiazol-yl)-2,5-diphenyltetrazolium bromide (MTT, Sigma Chemical Co., St. Louis, Mo., USA) dye reduction.

Regarding `O=CCCO` [reuterin, β-hydroxypropinoaldehyde], in data set [1], the “MTT50 concentration (concentration reducing optical density reading to half that of the control)” value is reported as “about 20 ppm”. For the same compound, in data set [2] (all four tested microorganisms), the “concentration that can prevent the growth of the tested microorganisms” value was in the range of 20 to 35 ppm and the “concentration that resulted in the death of the tested microorganisms” value was 40 to 50 ppm. For the same compound, the “sensitivity of tested microorganisms” value in data set [2] (gram-positive and gram-negative bacteria) is recorded as “sensitive”. Besides, in data set [3] (15 ppm), the “state of cultured cells in photomicrographs” value was “confluent”.

Turning to `O=CCCCC=O` [glutaraldehyde, reference compound], the “MTT50 concentration (concentration reducing optical density reading to half that of the control)” value in data set [1] is recorded as “approximately 4 ppm”. In addition, the “values for glutaraldehyde relative to those for reuterin” value in data set [2] (growth-preventing and lethal concentrations) was 2˜3 times. In addition, the “state of cultured cells in photomicrographs” value in data set [3] (0.05 ppm) is listed as “confluent”; in data set [3] (5 ppm), “all the cells cultured were found dead”.
